In patent publication US20090228996A1, “Means and Methods for influencing Interactions Between Dc-Sign and Dc-Sign Ligands” (priority 2006, published 2009):

How the values were obtained:
DC-SIGN-Fc = biological target: T1, DC-SIGN-Fc (Homo sapiens, UniProt Q9NNX6); test: DC-SIGN-Fc binding ELISA
T1 construct: the extracellular portion of DC-SIGN (amino acids 64 to 404)
T1 sequence (Q9NNX6 64-404): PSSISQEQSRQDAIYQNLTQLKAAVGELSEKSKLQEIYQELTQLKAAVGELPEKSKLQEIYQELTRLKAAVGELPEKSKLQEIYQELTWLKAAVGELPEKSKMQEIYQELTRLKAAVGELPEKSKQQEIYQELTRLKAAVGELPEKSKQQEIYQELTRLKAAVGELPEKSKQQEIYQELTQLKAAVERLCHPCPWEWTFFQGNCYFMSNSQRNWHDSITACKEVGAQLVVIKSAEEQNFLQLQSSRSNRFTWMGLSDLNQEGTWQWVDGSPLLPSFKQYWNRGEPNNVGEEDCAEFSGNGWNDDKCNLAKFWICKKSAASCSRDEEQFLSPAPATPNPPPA
Experimental: DC-SIGN-Fc binding ELISA. The DC-SIGN-Fc chimera contained the extracellular portion of DC-SIGN (amino acids 64 to 404) fused at the C-terminus to a human immunoglobulin (Ig) G1 Fc fragment and has been previously described (Geijtenbeek et al, 2002). Human milk or human milk compounds were diluted in 0.2M NaHCO3, coated on ELISA plates (maxisorb plate; Nunc) and incubated overnight at 4° C. or 2 hours at 37° C. This was followed by blocking with TSM containing 1% BSA for 30 minutes at 37° C. before addition of soluble DC-SIGN-Fc (5 μg/ml) for 2 hours at RT, the binding was determined by incubation of a peroxidase labeled anti-IgG1 antibody for 30 minutes at RT. DC-SIGN-Fc binding specificity was determined by pre-incubation of the DC-SIGN-FC with either 50 μg/ml DC-SIGN specific mouse antibody AZN-D1 (Geijtenbeek et al, 2000 a) or 10 mM EGTA. Single-cycle-replication transmission assay. The assay was performed as previously described (Groot et al, 2005). In short mDCs and iDCs were incubated in a 96-well-plate (35−50×10^3 DC/well) with human milk for 30 minutes at 37° C. before addition of the virus (5 ng p24/well), which was incubated for 2 hours at 37° C. The DCs were washed twice with PBS before addition of 50×10^3 LuSIV cells. After 24 hours, LuSIV cells were harvested and resuspended in 50 μl lysis buffer (25 mM Tris-Cl 7.8, 2 mM DTT, 2 mM CDTA, 10% glycerol, 1% Triton X100). The cells were then incubated for 45 minutes at room temperature while shaking, followed by 10 minutes centrifugation at 3200×g. […]
DC-SIGN-Fc binding ELISA. […] This was followed by blocking with TSM containing 1% BSA for 30 minutes at 37° C. before addition of soluble DC-SIGN-Fc (5 μg/ml) for 2 hours at RT, the binding was determined by incubation of a peroxidase labeled anti-IgG1 antibody for 30 minutes at RT. DC-SIGN-Fc binding specificity was determined by pre-incubation of the DC-SIGN-Fc with either 50 μg/ml DC-SIGN specific mouse antibody AZN-D1 (Geijtenbeek et al, 2000 a) or 10 mM EGTA.

DC-SIGN [1] = biological target: T2, DC-SIGN (Homo sapiens, UniProt Q9NNX6); test: gp120 bead adhesion assay, cells not given; assay type: cell-based; settings: Le^x containing compounds; data not shown
T2 sequence (Q9NNX6 1-404): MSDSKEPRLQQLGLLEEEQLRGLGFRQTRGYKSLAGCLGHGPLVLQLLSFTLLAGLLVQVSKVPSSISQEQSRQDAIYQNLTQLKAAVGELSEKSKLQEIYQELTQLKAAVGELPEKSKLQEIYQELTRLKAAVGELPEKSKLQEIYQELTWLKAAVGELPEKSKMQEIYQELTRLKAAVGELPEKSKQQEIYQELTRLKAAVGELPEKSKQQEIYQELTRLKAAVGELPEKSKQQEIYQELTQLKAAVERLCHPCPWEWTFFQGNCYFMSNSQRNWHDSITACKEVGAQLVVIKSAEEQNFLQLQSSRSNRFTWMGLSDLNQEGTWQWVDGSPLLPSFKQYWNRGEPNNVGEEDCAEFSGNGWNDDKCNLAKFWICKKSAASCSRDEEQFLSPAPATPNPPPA
Experimental: (§1) gp120 bead adhesion assay. Beads were prepared as previously described (Geijtenbeek et al, 2000 a), in short, streptavidin was covalently coupled to Carboxylate-modified TransFluoSpheres (488/645 nm, 1.0 μm; molecular probes). The steptavidin-beads were incubated with biotinylated F(ab′)2 fragment goat-anti-human IgG (6 μg/ml; Jackson Immunoresearch) and subsequently incubated overnight with gp120-Fc chimera. Fifty thousand cells, Raji-DC-SIGN cells, immature DCs or Raji-L-SIGN cells, were pre-incubated with human milk or milk compounds, AZN-D1 (Geijtenbeek et al, 2000 a), AZN-D2 (Halary et al, 2002), EGTA or mannan for 30 minutes at RT. The ligand-coated beads (20 beads/cell) were added to the pre-incubated cells and incubated for 30 minutes at 37° C. after which the cells were washed with TSM containing 0.5% BSA. After washing, the cells were resuspended in 100 μl TSM-BSA buffer and the adhesion was measured by flow cytometry (BD Biosciences).

[2] = system: DC-SIGN mediated transfer of HIV-1 by Raji-DC-SIGN cells to CD4+ T-lymphocytes; test: DC-SIGN mediated HIV-1 transfer assay (Raji-DC-SIGN transfer culture assay); assay type: cell-based; settings: Le^x containing compounds, all at 10 μg/ml
Experimental: DC-SIGN mediated HIV-1 transfer assay. The Raji and Raji-DC-SIGN cells were plated at a concentration of 2×10^4 cells/well in a 96 well format. Dilutions of human milk or human milk compounds were made in PBS containing 10% FCS and spiked with 3.7log TCID50/ml of the appropriate virus before addition to the Raji-DC-SIGN cells. As controls PBS containing 10% FCS was spiked with the same TCID50/ml of the corresponding virus before addition to Raji or Raji-DC-SIGN cells. After incubation the culture was washed with PBS before addition of CD4^+ enriched T-lymphocytes at a concentration of 1×10^5 cells/well with p24 determined on day 7. DC-SIGN specific antibody binding after exposure to human milk. […] The cells were washed and resuspended in 100 μl TSM containing 0.5% bovine serum albumin, (BSA Fraction V, Fatty Acid-Free) (Calbiochem) and the adhesion was measured by flow cytometry (BD Biosciences).
DC-SIGN mediated HIV-1 transfer assay. […] After a two hour incubation the culture was washed with PBS before addition of CD4^+ enriched T-lymphocytes at a concentration of 1×10^5 cells/well with p24 values determined on day 7.

[3] = biological target: T3, DC-SIGN on Raji-DC-SIGN cells (Homo sapiens, UniProt Q9NNX6); test: gp120 bead adhesion assay, Raji-DC-SIGN cells; assay type: cell-based; settings: for binding of gp120 beads to Raji-DC-SIGN: cells pre-incubated 30 min, human milk 1/20, vs control
T3 construct: expressed in transfected cells; host or cells: Raji cells (Raji-DC-SIGN)
T3 sequence (Q9NNX6 1-404): T2 sequence (Q9NNX6 1-404)
Experimental: as §1
(§2) gp120 bead adhesion assay. Beads were prepared as previously described (Geijtenbeek et al, 2000 a), in short, streptavidin was covalently coupled to Carboxylate-modified TransFluoSpheres (488/645 nm, 1.0 μm; molecular probes). The steptavidin-beads were incubated with biotinylated F(ab′)2 fragment goat-anti-human IgG (6 μg/ml; Jackson Immunoresearch) and subsequently incubated overnight with the gp120-Fc chimera. Fifty thousand cells, Raji-DC-SIGN cells or iDCs were pre-incubated with human milk, AZN-D1 (Geijtenbeek et al, 2000 a), AZN-D2 (Halary et al, 2002), EGTA or mannan for 30 minutes at RT. The ligand-coated beads (20 beads/cell) were added to the pre-incubated cells and incubated for 30 minutes at 37° C. after which the cells were washed with TSM (20 mM Tris, 150 mM NaCl, 1 mM CaCl2, 2 mM MgCl2) containing 0.5% BSA. After washing, the cells were resuspended in 100 μl TSM-BSA buffer and the adhesion was measured by flow cytometry (BD Biosciences).

DC-SIGN on iDCs = biological target: T4, DC-SIGN on iDCs (Homo sapiens, UniProt Q9NNX6); test: gp120 bead adhesion assay, immature DCs; assay type: cell-based; settings: for binding of gp120 beads to iDC: cells pre-incubated 30 min, human milk 1/20, vs control
T4 construct: endogenous in cells
T4 sequence (Q9NNX6 1-404): T2 sequence (Q9NNX6 1-404)
Experimental: as §1, §2

DC-SIGN [4] = biological target: T2, DC-SIGN; settings: literature; cited from earlier work
[5] = Example 2, protein fraction from milk S3 (C18 column) and DC-SIGN controls
[6] = major milk proteins at 1/20 dilution of physiological concentration in human milk

Le^x-BSA: Lewis X-BSA, 14 atom spacer (Calbiochem)
binding to DC-SIGN-Fc (DC-SIGN-Fc; Le^x-BSA or BSA control coated): demonstrates binding to DC-SIGN-Fc
interaction between DC-SIGN and gp120 (DC-SIGN [1]): none of the tested compounds were able to block the interaction
DC-SIGN mediated HIV-1 transfer [2]: able to inhibit DC-SIGN mediated HIV-1 transfer

mannan
binding of gp120 beads to Raji-DC-SIGN [3]: block binding of gp120 beads to the DC-SIGN expressing cells to the same extent as human milk
gp120 binding to iDCs (DC-SIGN on iDCs; [5]): demonstrated inhibition
binding of gp120 beads to iDC (DC-SIGN on iDCs): block binding of gp120 beads to the DC-SIGN expressing cells to the same extent as human milk

O=C(O)CN(CCOCCOCCN(CC(=O)O)CC(=O)O)CC(=O)O [EGTA, reference compound]
binding of gp120 beads to Raji-DC-SIGN [3]: block binding of gp120 beads to the DC-SIGN expressing cells to the same extent as human milk
DC-SIGN-Fc binding to human milk after pre-incubation of DC-SIGN-Fc (DC-SIGN-Fc; 50 μg/ml AZN-D1 or 10 mM EGTA, p<0.01): completely abrogated binding
gp120 binding to iDCs (DC-SIGN on iDCs; [5]): demonstrated inhibition
binding of gp120 beads to iDC (DC-SIGN on iDCs): block binding of gp120 beads to the DC-SIGN expressing cells to the same extent as human milk

lacto-N-fucopentaose III [LNFP III, reference compound]
interaction between DC-SIGN and gp120 (DC-SIGN [1]): none of the tested compounds were able to block the interaction
DC-SIGN mediated HIV-1 transfer [2]: not able to prevent HIV-1 transfer
previously shown DC-SIGN binding (DC-SIGN [4]): bind DC-SIGN

human lysozyme: major human milk protein (Sigma) [reference compound]
gp120 binding to Raji-DC-SIGN [3, 6]: None of the tested human milk compounds could inhibit gp120 binding
DC-SIGN-Fc binding to coated milk compound (DC-SIGN-Fc; [6]): showed no binding
gp120 binding to iDCs (DC-SIGN on iDCs; [6]): None of the tested human milk compounds could inhibit gp120 binding
